Measured values published in patent US20230348520A1, “COMPOUND COMPRISING BETA-NICOTINAMIDE MONONUCLEOTIDE OR PHARMACOLOGICALLY ACCEPTABLE SALT THEREOF, AND METHOD FOR EVALUATING QUALITY AND METHOD FOR ASSESSING ENZYMATIC REACTIVITY OF SAID COMPOUND” (ORIENTAL YEAST CO., LTD., priority 2020, published 2023).

How the values were obtained:
[1] = target: R-LDH5 (lactate dehydrogenase (LDH) 5, SEQ ID NO: 1, derived from skeletal muscle) (Oryctolagus cuniculus, UniProt P13491, L277I/T249S); experiment: Evaluation of enzymatic reactivity with lactate dehydrogenase R-LDH5 (Test Examples 1 and 2); type: biochemical; details: 19 mM β-NMN in R1 reagent; R-LDH5 245 U/mL final; 37° C.; 340 nm; one unit = 0.1 mAbs change in absorbance per minute; average of three measurements
Text: The lactate dehydrogenase is preferably lactate dehydrogenase derived from mammalian skeletal muscle, and more preferably lactate dehydrogenase (LDH) 5 (hereinafter may be referred to as “R-LDHS”). The R-LDHS has an amino acid sequence as set forth in SEQ ID NO: 1, is composed of a tetramer of sub-units, and is derived from skeletal muscle. Other lactate dehydrogenases of any mammal can also be used, such as porcine lactate dehydrogenase (LDH) 1, human lactate dehydrogenase (LDH) 1, and human lactate dehydrogenase (LDH) 5. The LDH catalyzes dehydrogenation of lactic acid as a substrate, to convert the lactic acid to pyruvic acid. At this time, the β-NMN is converted to a reduced form of β-NMN (see FIG. 1).
In the present invention, the enzymatic reactivity refers to a value obtained through measurement using the following reagents and method.
(The purity of the β-NMN in a measurement sample is assumed to be 100%. Also, the β-NMN is dissolved in an 80 mM sodium carbonate solution in advance.)
The enzyme solution is prepared so that the LDH is to be 245 U/mL as a final concentration in a reaction liquid.
In the present invention, the activity unit (U) of the LDH is an activity unit measured by the human LDH measurement method according to IFCC when using NAD as a coenzyme.
An enzyme activity is measured using a 7180 type Hitachi automatic analyzer (obtained from Hitachi High-Tech Corporation). Measurement parameters are as follows.
Analysis method: Rate A Measurement wavelength (sub/main): 405 nm/340 nm Reaction duration: 10 minutes Photometric points: 20 to 24 Sample liquid (enzyme solution): 18 μL R1 reagent: 120 μL R2 reagent: 87 μL
18 μL of the enzyme solution and 120 μL of the R1 reagent are mixed. The resulting mixture is incubated at 37° C. for 4.5 minutes (photometric points 1 to 16), followed by addition of 87 μL of the R2 reagent, to initiate reaction (photometric point 17). From the absorbance of the measurement sample one to two minutes after initiation of the reaction (photometric points 20 to 24), the absorbance of water (blank) at the same photometric points is subtracted, to calculate a value of change in absorbance per minute (ΔmAbs/min). Regarding the activity unit (the unit of reactivity with the lactate dehydrogenase R-LDH5), 0.1 mAbs as the value of change in absorbance per minute is defined as one unit.
By the following method, the β-NMN compound of the present invention (Production Example 1) and β-NMN products 1 to 3 were measured for the enzymatic reactivity with R-LDHS (SEQ ID NO: 1). Note that, the measurement results are average values in the measurement performed three times.
(The purity of the β-NMN in a measurement sample was assumed to be 100%. Also, the β-NMN was dissolved in an 80 mM sodium carbonate solution in advance.)
The enzyme solution was prepared so that the R-LDH5 was to be 245 U/mL as a final concentration in a reaction liquid.
An enzyme activity was measured using a 7180 type Hitachi automatic analyzer (obtained from Hitachi High-Tech Corporation). Measurement parameters are as follows.
Analysis method: Rate A Measurement wavelength (sub/main): 405 nm/340 nm Reaction duration: 10 minutes Photometric points: 20 to 24 Sample liquid (enzyme solution): 18 μL
18 μL of the enzyme solution and 120 μL of the R1 reagent were mixed. The resulting mixture was incubated at 37° C. for 4.5 minutes (photometric points 1 to 16), followed by addition of 87 μL of the R2 reagent, to initiate reaction (photometric point 17). Measurements were taken for five minutes after initiation of the reaction. From the absorbance of the measurement sample at minute one to minute two after the initiation (photometric points 20 to 24), the absorbance of water (blank) at the same photometric points was subtracted, to calculate a value of change in absorbance per minute (ΔmAbs/min). Regarding the activity unit, 0.1 mAbs as the value of change in absorbance per minute was defined as one unit. […]

HEK293 cells [2] = experiment: Intracellular NAD content in culture cells (Test Example 5); type: cell-based; details: nonadherent HEK293 cells; 0.1 mM β-NMN; shake-cultured seven days without exchange of the medium; FIGS. 6A, 6B
Description: In order to evaluate biological activities of the β-NMN compounds of Production Example 1 and the β-NMN product 3, culture cells were cultured in a medium containing the β-NMN compound, to measure change in intracellular NAD.
The culture cells used were HEK293 cells that had been treated to be nonadherent. The medium used was FreeStyle™ 293 Expression Medium (obtained from Thermo Fisher Scientific).
First, the HEK293 cells, which had been treated to be nonadherent, were disseminated in the medium so as to have a concentration of 1×10^6 cells/mL. The resulting medium was dispensed into six 125 mL-flasks by 30 mL each. The flasks were supplemented with the β-NMN compounds of Production Example 1 and the β-NMN product 3 so as to have a final concentration of 0 or 0.1 mM. Without exchange of the medium, the cells were shake-cultured for seven days in a CO2 incubator at 37° C.
After shake-culturing for seven days, the cells and the culture supernatant were recovered for various analyses. […] Specifically, the recovered cells were weighed and were extracted with Extraction buffer attached to a kit, and the resulting extract was measured for NAD. The intracellular NAD content was calculated based on a calibration curve obtained by measuring NAD solutions of various concentrations.

HEK293 cells [3] = experiment: Cytotoxicity rate from intra- and extracellular AST activities in culture cells (Test Example 5); type: cell-based; details: nonadherent HEK293 cells; 0.1 mM β-NMN; shake-cultured seven days without exchange of the medium; FIGS. 5A, 5B
[4] = target: human lactate dehydrogenase (LDH) 1 (SEQ ID NO: 2) (Homo sapiens, UniProt P07195); experiment: Dependency of LDH activity value on β-NMN compound concentration, human LDH1 (Test Example 4); type: biochemical; details: human LDH1 45 U/mL; 0-200 mM β-NMN in R1 reagent; compared with Production Example 1; FIGS. 4D to 4F
Chain of human lactate dehydrogenase (LDH) 1 (SEQ ID NO: 2) (P07195 whole entry): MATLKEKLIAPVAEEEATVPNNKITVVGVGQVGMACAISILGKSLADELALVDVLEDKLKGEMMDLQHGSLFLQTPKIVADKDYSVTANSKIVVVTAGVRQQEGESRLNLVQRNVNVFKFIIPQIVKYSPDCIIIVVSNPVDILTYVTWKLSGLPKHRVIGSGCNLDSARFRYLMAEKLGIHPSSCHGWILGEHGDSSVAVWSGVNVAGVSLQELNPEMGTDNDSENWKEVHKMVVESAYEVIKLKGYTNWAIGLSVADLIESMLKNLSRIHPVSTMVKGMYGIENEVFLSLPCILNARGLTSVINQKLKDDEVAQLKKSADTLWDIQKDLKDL
Description: (§1) In order to confirm dependency of a LDH activity value on the β-NMN compound concentration, the β-NMN compound produced in Production Example 1 and β-NMN products 1 to 3 the same as those used in Test Example 1 were used for measurement of an enzyme activity of LDH at varied concentrations of the β-NMN in the R1 reagent.
(§2) The enzyme activity of LDH was measured in the same manner as in [Evaluation of enzymatic reactivity] of Test Example 1 except that the following R1 reagent and enzyme solution were used, to calculate a value of change in absorbance per minute (ΔmAbs/min). Regarding as 100% the activity value of LDH when the β-NMN compound of Production Example 1 was used at 200 mM, the relative activity values (%) in each NMN at each concentration are presented in FIGS. 4A to 4F (FIGS. 4A to 4C: R-LDH5 and FIGS. 4D and 4F: human LDH1). Note that, the measurement results are average values in the measurement performed three times.
(§3) (The purity of the β-NMN in a measurement sample was assumed to be 100%. Also, the β-NMN was dissolved in a 100 mM sodium carbonate solution in advance.)
An enzyme solution was prepared so that the LDH was to be 45 U/mL as a final concentration in a reaction liquid.

[5] = target: R-LDH5 (lactate dehydrogenase, SEQ ID NO: 1) (Oryctolagus cuniculus, UniProt P13491, L277I/T249S); experiment: Dependency of LDH activity value on β-NMN compound concentration, R-LDH5 (Test Example 4); type: biochemical; details: R-LDH5 245 U/mL; for relative activity value of LDH, dependency on β-NMN concentration: 0-200 mM β-NMN in R1 reagent, compared with Production Example 1, FIGS. 4B, 4C
Description: as §1, §2, §3
An enzyme solution was prepared so that the LDH was to be 245 U/mL as a final concentration in a reaction liquid.

| Compound | Enzymatic reactivity (unit) [1] | enzymatic activity of LDH at a β-NMN concentration of 200 mM ([5]; 200 mM β-NMN in R1 reagent, FIG. 4A) | intracellular NAD content (HEK293 cells [2]) | cytotoxicity rate determined based on intra- and extracellular AST activities (HEK293 cells [3]) | relative activity value of LDH, dependency on β-NMN concentration [4] | relative activity value of LDH, dependency on β-NMN concentration [5] |
| --- | --- | --- | --- | --- | --- | --- |
| NC(=O)c1ccc[n+]([C@@H]2O[C@H](COP(=O)([O-])O)[C@@H](O)[C@H]2O)c1 [Production Example 1, β-nicotinamide mononucleotide] | 39 unit |  | higher when the β-NMN compound of Production Example 1 was added than when the β-NMN compound of the β-NMN product 3 was added | lower when the β-NMN compound of Production Example 1 was added than when the β-NMN compound of the β-NMN product 3 was added |  |  |
| NC(=O)c1ccc[n+]([C@@H]2O[C@H](COP(=O)([O-])O)[C@@H](O)[C@H]2O)c1 [Production Example 2, β-nicotinamide mononucleotide] | 40 unit |  |  |  |  |  |
| NC(=O)c1ccc[n+]([C@@H]2O[C@H](COP(=O)([O-])O)[C@@H](O)[C@H]2O)c1 [Production Example 3, β-nicotinamide mononucleotide] | 38 unit |  |  |  |  |  |
| NC(=O)c1ccc[n+]([C@@H]2O[C@H](COP(=O)([O-])O)[C@@H](O)[C@H]2O)c1 [Production Example 4, β-nicotinamide mononucleotide] | 35 unit |  |  |  |  |  |

Further lines, with some results ahead:

| Enzymatic reactivity (unit) [1] | enzymatic activity of LDH at a β-NMN concentration of 200 mM ([5]; 200 mM β-NMN in R1 reagent, FIG. 4A) | Compound | intracellular NAD content (HEK293 cells [2]) | cytotoxicity rate determined based on intra- and extracellular AST activities (HEK293 cells [3]) | relative activity value of LDH, dependency on β-NMN concentration [4] | relative activity value of LDH, dependency on β-NMN concentration [5] |
| --- | --- | --- | --- | --- | --- | --- |
| 23 unit | could not be measured | NC(=O)c1ccc[n+]([C@@H]2O[C@H](COP(=O)([O-])O)[C@@H](O)[C@H]2O)c1 [β-NMN product 1, β-nicotinamide mononucleotide] |  |  | larger differences in the activity value from the β-NMN compound of Production Example 1 as the β-NMN concentration increased |  |
| 27 unit |  | NC(=O)c1ccc[n+]([C@@H]2O[C@H](COP(=O)([O-])O)[C@@H](O)[C@H]2O)c1 [β-NMN product 2, β-nicotinamide mononucleotide] |  |  | larger differences in the activity value from the β-NMN compound of Production Example 1 as the β-NMN concentration increased | the difference in the activity value from the β-NMN compound of Production Example 1 became larger as the β-NMN concentration increased |
| 26 unit |  | NC(=O)c1ccc[n+]([C@@H]2O[C@H](COP(=O)([O-])O)[C@@H](O)[C@H]2O)c1 [β-NMN product 3, β-nicotinamide mononucleotide] |  |  | larger differences in the activity value from the β-NMN compound of Production Example 1 as the β-NMN concentration increased | the difference in the activity value from the β-NMN compound of Production Example 1 became larger as the β-NMN concentration increased |
